{
  "source": "patent US11771692B2",
  "about": "“N-hydroxyethyl didehydroazapodophyllotoxins as GBP1 inhibitors and methods of overcoming treatment resistance in cancer” (The Board of Trustees of the Leland Stanford Junior …, priority 2018, dated 2023)",
  "key": {"GBP1 [1]": {"system": "GBP1", "assay": "cell-based reporter assay, OVCAR-8 stably transfected with GBP-1-luciferase", "conditions": "OVCAR-8 GBP-1-luciferase", "source_text": "Exemplary compounds (1)-(17) and previously identified compound SU093 (Andreoli, M., Persico, M.; Kumar, A.; Orteca, N.; Kumar, V.; Pepe, A.; Mahalingam, S.; Alegria, A. E.; Petrella, L.; Sevciunaite, L.; Camperchioli, A.; Mariani, M.; Di Dato, A.; Novellino, E.; Scambia, G., Malhotra, S. V.; Ferlini, C.; Fattorusso, C., Identification of the First Inhibitor of the GBP1:PIM1 Interaction. Implications for the Development of a New Class of Anticancer Agents against Paclitaxel Resistant Cancer Cells. Journal of Medicinal Chemistry 2014, 57 (19), 7916-7932) were tested for GBP1 inhibition using a cell-based reporter assay in ovarian cancer cell line OVCAR-8 stably transfected with GBP-1-luciferase. Tables 1 and 2 below outlines the percentage of GBP1 expression in OVCAR-8 cells for each of the 17 compounds tested."}, "OVCAR8-PRes cells": {"system": "OVCAR8-PRes cells", "assay": "Growth inhibition of paclitaxel-resistant OVCAR8-PRes cells", "format": "cell-based", "source_text": "(§1) The cytotoxic effect of SU093 and paclitaxel combination treatment was also studied (FIG. 5, panel E)."}, "GBP1 [2]": {"system": "GBP1", "assay": "Confocal microscopy immunostaining of GBP1 and β-tubulin in OVCAR8 cells", "format": "cell-based", "conditions": "OVCAR8, 1 nM SU093 for 6 h"}, "[3]": {"system": "Luciferase-tagged OVCAR8 cells", "assay": "Viability of luciferase-tagged OVCAR8 cells in combination with radiation or paclitaxel", "format": "cell-based", "procedure": "FIG. 5, panels A-E: illustrates the sensitizing effect of SU093 on the viability of luciferase-tagged OVCAR8 cells in combination with radiation and chemotherapy treatment. FIG. 5, panel A graphs cells that were pre-treated with 0, 0.5 and 1 nM SU093 for 24 h followed by 0, 5 & 10 Gy radiation treatment and incubated for 96 h. FIG. 5, panel B illustrates cell cycle analysis of SU093 and radiation combination treatment in OVCAR8. FIG. 5, panel C illustrates the effect of SU093 on OVCAR8 cells in hypoxic condition (0.5% O2) FIG. 5, panel D graphs hypoxic cells that were pre-treated with SU093 for 24 h followed by 5 and 10 Gy radiation.\nIt has been previously established that GBP1 expression has a definitive role in the resistance towards radiation therapy and taxane-based chemotherapy. The GBP1 inhibitor SU093 was tested in combination with radiation and paclitaxel (a well known taxane-based chemotherapeutic drug) for its potential in overcoming radiation therapy and taxane resistance. […] A cell cycle analysis experiment for radiation was performed with SU093 and combination treatment (FIG. 5, panel B). […] One of the mechanisms through which a drug can sensitize the effect of radiation is its ability to block G2/M phase of the cell cycle (Leonard, C. E.; Chan, D. C.; Chou, T. C.; Kumar, R.; Bunn, P. A., Paclitaxel enhances in vitro radiosensitivity of squamous carcinoma cell lines of the head and neck. Cancer Research 1996, 56 (22), 5198-5204). G2/M is the most radiosensitive phase in the cell cycle and arresting the cell population in this phase would likely sensitize them to the next cycle of radiation and enhance cell death (Pawlik, T. M.; Keyomarsi, K., Role of cell cycle in mediating sensitivity to radiotherapy. International Journal of Radiation Oncology Biology Physics 2004, 59 (4), 928-942; Nambiar, D. K.; Rajamani, P.; Deep, G.; Jain, A. K.; Agarwal, R.; Singh, R. P., Silibinin Preferentially Radiosensitizes Prostate Cancer by Inhibiting DNA Repair Signaling. Molecular Cancer Therapeutics 2015, 14 (12), 2722-2734). […] Bearing in mind that solid tumors create a hypoxic microenvironment, these findings provided a very compelling case for the clinical application of the subject GBP1 inhibitors as a treatment for re-sensitizing radiation therapy in refractory cancers.\nas §1"}, "A549": {"system": "A549", "assay": "MTT cytotoxicity assay, A549", "format": "cell-based", "conditions": "Homo sapiens, Lung", "source_text": "It was observed that SU093 was highly cytotoxic for all cell lines tested with IC50 values in the nanomolar range."}, "HEK293": {"system": "HEK293", "assay": "MTT cytotoxicity assay, normal HEK293 cells", "format": "cell-based", "source_text": "FIG. 3, panels A-E. FIG. 3, panel A illustrates the effects of SU093 on survival of human normal HEK293 cell line and ovarian cancer cell lines OVCAR8 & SKOV3 cells via MTT assay. FIG. 3, panel B illustrates the effect of SU093 on GBP1 and PIM1 expression in OVCAR8 cells. […] FIG. 3, panel D illustrates quantification of overexpression and knockdown of GBP1 gene in stably transfected OVCAR8 cells. FIG. 3, panel E illustrates cytotoxicity of SU093 as evaluated in GBP1-OV, GBP1-WT and GBP1-KD OVCAR8 via MTT assay.\nFurthermore, OVCAR8 cells with overexpressed (OV) and knockdown (KD) of GBP1 gene were created (FIG. 3, panel D) and cell viability experiments were performed on GBP1-WT (wild-type), GBP1-OV and GBP1-KD OVCAR8 cells at different doses of SU093."}, "GBP1 [4]": {"system": "GBP1", "assay": "Immunoblotting and cycloheximide chase of GBP1 protein in SCC-90 HNC cells", "format": "cell-based", "source_text": "The potential for GBP1 inhibition and radiosensitzation in head and neck cancer cells was also investigated."}, "[5]": {"assay": "In vivo pharmacokinetics, plasma concentration by LCMS", "conditions": "C57BL/6, mouse, C57BL6 female mice, single 10 mg/kg IP", "procedure": "FIG. 7, panel A illustrates in vivo PK studies, C57BL/6 mice. Drug concentration in plasma was quantified at different time points using LCMS after a single IP injection of SU093. FIG. 7, panel B illustrates the drug concentration in harvested ovaries and liver of C57BL/6 mice after 14 days of administration with SU093 (100 mg/kg) by daily IP injection.\nTo investigate the pharmacokinetics and toxicity of the subject GBP1 inhibitors, in vivo pharmacokinetic studies with SU093 were conducted and the drug concentration in mice plasma at different time points after injection was determined (e.g. after 5, 10, 30, 60, 120, 360 minutes after injection). Non-tumor-bearing C57BL6 female mice (n=3/group of each time point) were used for these studies and the drug was administered in a single dose of 10 mg/kg intrepertoneally (IP) at different time points. After each time point 150 microliters of blood was withdraw from retro orbital sinus from the respective group of anesthetized (isoflurane) mice. Plasma was separated from each blood sample and mixed with an equal volume of acetonitrile (w/v). Precipitated protein was separated by centrifugation at 12,000 RPM for 10 min at 4° C. Clear supernatant was analyzed for quantification of SU093 using liquid chromatography mass spectroscopy (LCMS)."}, "GBP1 and PIM1": {"system": "GBP1 and PIM1", "assay": "Immunoblotting of GBP1 and PIM1 expression in OVCAR8 cells", "format": "cell-based"}},
  "note": "“Also recorded” adds a separate entry of the source. Like-named read-outs stand apart in the source and are kept apart here.",
  "data": [
    {"compound": "COc1ccc2c(c1)N(CCO)C1=C(C(=O)OC1)C2c1ccccc1", "note": "(centres unmarked) [SU093]", "values": [
      {"measurement": "% GBP1 expression OVCAR-8 @5 nM", "setting": "GBP1 [1]; 5 nM", "result": 60.3, "unit": "%"},
      {"measurement": "% GBP1 expression OVCAR-8 @10 nM", "setting": "GBP1 [1]; 10 nM", "result": 51.0, "unit": "%"},
      {"measurement": "inhibition at 0.015 µM", "setting": "OVCAR8-PRes cells; 15 nM SU093, read-out: inhibition in the cell growth", "result": 50, "unit": "%"},
      {"measurement": "inhibition at 0.015 µM", "setting": "OVCAR8-PRes cells; SU093 (15 nM) and paclitaxel (2 μM), read-out: growth inhibition, combination treatment", "result": 80, "unit": "%"},
      {"measurement": "GBP1 nuclear translocation and tubulin expression", "setting": "GBP1 [2]", "result": "inhibits the nuclear translocation of GBP1 protein and reduces the tubulin expression; also recorded: blocking its nuclear translocation and reducing tubulin expression"},
      {"measurement": "cell viability, pretreatment with SU093 then radiation", "setting": "[3]; 5 and 10 Gy radiation", "result": "significant synergistic effect"},
      {"measurement": "cytotoxicity in hypoxic conditions", "setting": "[3]; OVCAR8, hypoxic (0.5% O2)", "result": "intrinsic cytotoxic effects"},
      {"measurement": "cytotoxic effect of SU093 and paclitaxel combination", "setting": "[3]; SU093 0.5 nM 24 h then paclitaxel 1, 5, 10 nM", "result": "synergistic cytotoxic effect; also recorded: enhanced cytotoxic effect as compared to paclitaxel alone"},
      {"measurement": "cell death, co-treatment with radiotherapy in hypoxia", "setting": "[3]; hypoxic OVCAR8, SU093 plus 5 and 10 Gy", "result": "significantly potentiated cell death"},
      {"measurement": "IC50", "setting": "A549", "result": 2.48, "unit": "nM"},
      {"measurement": "cytotoxicity for normal cell line", "setting": "HEK293", "result": "no cytotoxicity"},
      {"measurement": "GBP1 protein degradation, cyclohexamide chase", "setting": "GBP1 [4]; SCC-90", "result": "degradation of GBP1 protein and reduction of its half-life"},
      {"measurement": "GBP1 protein expression", "setting": "GBP1 [4]; SCC-90, western blot, 24 h", "result": "inhibition in GBP1 expression; also recorded: inhibited GBP1 protein expression"},
      {"measurement": "Cmax", "setting": "[5]", "result": 1.6, "unit": "µg/mL"},
      {"measurement": "Tmax", "setting": "[5]", "result": 5, "unit": "min"},
      {"measurement": "half-life", "setting": "[5]", "result": 60, "unit": "min"},
      {"measurement": "GBP1 and PIM1 expression", "setting": "GBP1 and PIM1", "result": "inhibits GBP1 and PIM1 expressions in a dose-dependent manner"}
    ]}
  ]
}
